From PMC10033419, “Blocking NS3–NS4B interaction inhibits dengue virus in non-human primates” (Nature, 2023)
Several values for one entry are separate records, joined by “and”; a condition that tells them apart may be missing. Equal entries are not always repeated. Where two headings read alike, the source gives them in different places.

Legend:
[1] = system: DENV-2/16681/eGFP; test: microbe, parasite or virus in culture; type: cell-based; settings: Dengue virus
[2] = ATPLite cell viability assay; type: cell-based, African green monkey; settings: African green monkey, Vero cells
Method: (§1) In parallel, the toxicity was measured using an ATPLite cell viability luminescence assay (PerkinElmer). The assays were performed in three different cell types (Vero, Huh-7 and THP-1/DC-SIGN) as described in ref. [3] to exclude cell-specific activity of the compound.

[3] = system: Vero cells; test: ATPLite cell viability assay; type: cell-based, African green monkey; settings: individual experiments, listed as 64281802-AAA
Method: as §1

[4] = in vivo; settings: rhesus monkey, iv, 1 mg/kg
Method: After single intravenous administration, the monkey blood was collected at the BPRC just before dosing, and at 0.05, 0.15, 0.5, 4, 6, 8, 24, 48 and 264 h after dosing. After oral administration, the monkey blood was collected at the BPRC on the first and last day of dosing just before dosing and at 1, 2, 4, 6, 8 and 24 h after dosing that day. Moreover, blood samples were taken on days 3, 6 and 7 after infection just before dosing. For the study at WRAIR, the monkey blood was collected just before dosing and at 1, 4, 8 and 24 h after the first day of dosing and before dosing and at 2, 5, 8, 24 and 96 h after the last day of dosing. Furthermore, blood samples were taken on days 0, 2, 5 and 8 after infection just before dosing. […] A volume of 1 ml blood was collected into a blood collection tube coated with EDTA as anti-coagulant. Within 1 h after collection, the blood samples were centrifuged in a precooled centrifuge for 10 min at 1,500g (4 °C). Within 2 h after blood collection, the plasma samples were stored at −80 °C until shipment. Individual plasma concentration–time profiles were processed for a non-compartmental pharmacokinetics analysis using Phoenix WinNonlin v.6.3. (Certara).

[5] = Plasma protein binding; type: in vitro ADME; settings: rhesus monkey, rhesus macaques
[6] = system: panel of 20 DENV strains; test: DENV genotype panel (20 strains) RT-qPCR, Vero E6; type: cell-based, DENV-1–4; settings: Dengue virus, DENV4 / genotype 3, Vero C1008, read-out: mean EC50, range
Method: A total of 20 DENV strains, representing the available genotypes within the four DENV serotypes, were used in the in vitro genotype panel, from which 19 viruses were described previously in ref. [3] and one additional virus, DENV-1/45AZ5 (ref. [54]), was added.
A potential toxic effect on host cells was tested in parallel, while omitting virus infection, using the MTS/PMS method (Promega) for Vero cells, or by high-content imaging for C6/36 cells, as described previously. […] RT–qPCR data were analysed using the QuantStudio 12K Flex software (v.1.2.3) or SDS v.1.2 Applied Biosystems software. Inhibition values for antiviral molecules were plotted using KaleidaGraph plotting software (v.4.03, Synergy Software).

[7] = rhesus monkey, in vivo
[8] = system: DENV-2 RL strain; test: In vivo kinetics study, low viral inoculum (10^2 PFU); settings: for In vivo kinetics, Mean of Log10: group mean; for In vivo kinetics, Copies/ml / In vivo kinetics, Log10 of Copies/ml: individual mice

With `COc1cc(N[C@H](C(=O)c2c[nH]c3ccc(OC(F)(F)F)cc23)c2ccc(Cl)cc2OC)cc(S(C)(=O)=O)c1` [JNJ-1802] as the compound, how does the EC50 ([1]; DENV2, THP-1, THP-1/DC-SIGN, read-out: EC50) read?
Its EC50 is 0.000173 ± 4.3e-05 µM.

What about the EC90 ([1]; DENV2, THP-1, THP-1/DC-SIGN, read-out: EC90) of the same compound?
The EC90 was 0.000283 ± 5.6e-05 µM.

What about the EC50 ([1]; DENV2, THP-1, read-out: EC50, individual data) of the same compound?
The EC50 was 0.0002 µM.

And the EC90 ([1]; DENV2, THP-1, read-out: EC90, individual data)?
Its EC90 is 0.00025 µM.

And the CC50 at 4 d ([2]; TOX d4 preseeding, individual experiments)?
The CC50 at 4 d was 3.04 µM.

And the CC50 ([2]; Vero)?
The CC50 was 2.61 ± 0.47 µM.

What about the CC50 ([2]; Vero with 50% HS) of the same compound?
The CC50 was > 1.5 µM.

What about the CC50 ([3]; Vero cells in presence of 50% HS) of the same compound?
Its CC50 is > 2.5 µM.

And the CC50 ([3]; Vero cells, TOX d4 preseeding)?
Its CC50 is 3.08 µM and 2.4 µM and 2.78 µM and 3.52 µM and 2.2 µM and 2.32 µM and 2.27 µM and 2.31 µM and 2.18 µM.

What about the AUC(0-inf) ([4]; female, in vivo) of the same compound?
The AUC(0-inf) was 11800 ng·h/mL.

What about the AUC(0-t) ([4]; female, plasma) of the same compound?
The AUC(0-t) was 6730 ng·h/mL.

What about the clearance ([4]; female, plasma) of the same compound?
Its clearance is 1.67 ± 0.74 mL/min/kg.

And the half-life ([4]; female, plasma)?
The half-life was 50 ± 12 h.

What about the Vdssp ([4]; in vivo) of the same compound?
Its Vdssp is 3.93 ± 1.18 L/kg.

What about the fraction unbound [5] of the same compound?
Its fraction unbound is < 0.001.

And the EC50 [6]?
Its EC50 is 40 to 1800 pM.

What about the adverse effects [7] of the same compound?
Its adverse effects is “No adverse effects were observed”.

What about the weight loss [7] of the same compound?
The weight loss was “not attributable to treatment with JNJ-1802”.

What about the “viral load vs vehicle” value ([8]; 0.2 mg per kg per day b.i.d.) of the same compound?
Its value is “No significant reduction in viral load”.

What about the “In vivo kinetics, Mean of Log10” value ([8]; 0.2 mg/kg/d, day 1 p.i.) of the same compound?
Its value is 2.59 Log10.

And the “In vivo kinetics, Copies/ml” value ([8]; 0.2 mg/kg/d, day 1 p.i.)?
The value was 3.93E+02 Copies/ml.

And the “In vivo kinetics, Log10 of Copies/ml” value ([8]; 0.2 mg/kg/d, day 1 p.i.)?
The value was 2.5940 Log10.

What about the “In vivo kinetics, Copies/ml” value ([8]; 0.2 mg/kg/d, day 2 p.i.) of the same compound?
The value was 3.93E+02 Copies/ml and 5.27E+03 Copies/ml.

What about the “In vivo kinetics, Log10 of Copies/ml” value ([8]; 0.2 mg/kg/d, day 2 p.i.) of the same compound?
The value was 2.5940 Log10 and 3.7220 Log10.

And the “In vivo kinetics, Mean of Log10” value ([8]; 0.2 mg/kg/d, day 3 p.i.)?
The value was 3.28 Log10.

What about the “In vivo kinetics, Copies/ml” value ([8]; 0.2 mg/kg/d, day 3 p.i.) of the same compound?
The value was 7.26E+03 Copies/ml and 3.93E+02 Copies/ml and 6.17E+04 Copies/ml.

What about the “In vivo kinetics, Log10 of Copies/ml” value ([8]; 0.2 mg/kg/d, day 3 p.i.) of the same compound?
The value was 3.8609 Log10 and 2.5940 Log10 and 3.9537 Log10 and 4.7902 Log10.

And the “In vivo kinetics, Mean of Log10” value ([8]; 0.2 mg/kg/d, day 4 p.i.)?
Its value is 3.19 Log10.

What about the “In vivo kinetics, Copies/ml” value ([8]; 0.2 mg/kg/d, day 4 p.i.) of the same compound?
Its value is 3.93E+02 Copies/ml and 1.02E+04 Copies/ml and 4.96E+03 Copies/ml and 2.86E+03 Copies/ml and 9.30E+03 Copies/ml.

What about the “In vivo kinetics, Log10 of Copies/ml” value ([8]; 0.2 mg/kg/d, day 4 p.i.) of the same compound?
Its value is 2.5940 Log10 and 4.0085 Log10 and 3.6952 Log10 and 3.4564 Log10 and 3.9686 Log10.

And the “In vivo kinetics, Mean of Log10” value ([8]; 0.2 mg/kg/d, day 5 p.i.)?
The value was 5.08 Log10.

And the “In vivo kinetics, Copies/ml” value ([8]; 0.2 mg/kg/d, day 5 p.i.)?
The value was 8.17E+04 Copies/ml and 5.79E+05 Copies/ml and 1.02E+05 Copies/ml.

And the “In vivo kinetics, Log10 of Copies/ml” value ([8]; 0.2 mg/kg/d, day 5 p.i.)?
Its value is 4.9120 Log10 and 5.7623 Log10 and 4.6527 Log10 and 5.0605 Log10 and 5.0084 Log10.

And the “In vivo kinetics, Mean of Log10” value ([8]; 2 mg/kg/d, day 1 p.i.)?
Its value is 2.59 Log10.

What about the “In vivo kinetics, Copies/ml” value ([8]; 2 mg/kg/d, day 1 p.i.) of the same compound?
The value was 3.93E+02 Copies/ml.

What about the “In vivo kinetics, Log10 of Copies/ml” value ([8]; 2 mg/kg/d, day 1 p.i.) of the same compound?
Its value is 2.5940 Log10.

What about the “In vivo kinetics, Mean of Log10” value ([8]; 2 mg/kg/d, day 2 p.i.) of the same compound?
Its value is 2.59 Log10.

What about the “In vivo kinetics, Copies/ml” value ([8]; 2 mg/kg/d, day 2 p.i.) of the same compound?
The value was 3.93E+02 Copies/ml.

What about the “In vivo kinetics, Log10 of Copies/ml” value ([8]; 2 mg/kg/d, day 2 p.i.) of the same compound?
Its value is 2.5940 Log10.

What about the “In vivo kinetics, Mean of Log10” value ([8]; 2 mg/kg/d, day 3 p.i.) of the same compound?
The value was 2.77 Log10.

And the “In vivo kinetics, Copies/ml” value ([8]; 2 mg/kg/d, day 3 p.i.)?
The value was 3.93E+02 Copies/ml and 6.33E+03 Copies/ml.

What about the “In vivo kinetics, Log10 of Copies/ml” value ([8]; 2 mg/kg/d, day 3 p.i.) of the same compound?
The value was 2.5940 Log10 and 3.8013 Log10.

What about the “In vivo kinetics, Mean of Log10” value ([8]; 2 mg/kg/d, day 4 p.i.) of the same compound?
The value was 2.59 Log10.

And the “In vivo kinetics, Copies/ml” value ([8]; 2 mg/kg/d, day 4 p.i.)?
The value was 3.93E+02 Copies/ml.

What about the “In vivo kinetics, Log10 of Copies/ml” value ([8]; 2 mg/kg/d, day 4 p.i.) of the same compound?
Its value is 2.5940 Log10.

What about the “In vivo kinetics, Mean of Log10” value ([8]; 2 mg/kg/d, day 5 p.i.) of the same compound?
Its value is 2.59 Log10.

And the “In vivo kinetics, Copies/ml” value ([8]; 2 mg/kg/d, day 5 p.i.)?
Its value is 3.93E+02 Copies/ml.

And the “In vivo kinetics, Log10 of Copies/ml” value ([8]; 2 mg/kg/d, day 5 p.i.)?
The value was 2.5940 Log10.

What about the “In vivo kinetics, Mean of Log10” value ([8]; 20 mg/kg/d, day 1 p.i.) of the same compound?
The value was 2.59 Log10.

And the “In vivo kinetics, Copies/ml” value ([8]; 20 mg/kg/d, day 1 p.i.)?
Its value is 3.93E+02 Copies/ml.
